Source: patent publication US11787796B2, “Plasma Kallikrein inhibitors and uses thereof” (Takeda Pharmaceutical Company Limited, priority 2019, dated 2023)

Biological target: human activated kallikrein enzyme (Homo sapiens (Human), UniProt P03952)
Assay: Plasma kallikrein inhibition assay with fluorogenic peptide substrate, 500 pM activated kallikrein format
Type: biochemical
Conditions: 500 pM activated kallikrein; 300 uM Pro-Phe-Arg-7-amido-4-methylcoumarin substrate; 30 min preincubation, 10 min reaction at RT; read-out: Primary Dose Response Assay: Average EC50
In short: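 Pro-Phe-Arg-7-amido-4-methylcoumarin substrate (300 uM) started reactions after a 30 min RT enzyme–inhibitor preincubation. This format used 500 pM activated human kallikrein in Tris pH 7.5 buffer with EDTA, NaCl, PEG-400 and Triton X-100. AMC fluorescence (380/460 nm) was measured after 10 min at RT.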

Chain of human activated kallikrein enzyme (P03952 391-638): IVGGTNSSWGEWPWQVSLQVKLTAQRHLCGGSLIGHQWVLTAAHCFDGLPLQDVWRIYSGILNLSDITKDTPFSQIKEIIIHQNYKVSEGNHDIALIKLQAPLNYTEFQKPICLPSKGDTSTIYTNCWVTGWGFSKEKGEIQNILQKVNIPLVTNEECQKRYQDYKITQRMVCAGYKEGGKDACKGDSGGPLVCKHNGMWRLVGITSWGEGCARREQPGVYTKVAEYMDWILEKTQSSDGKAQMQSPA
Chain of human activated kallikrein enzyme (P03952 20-390 partner): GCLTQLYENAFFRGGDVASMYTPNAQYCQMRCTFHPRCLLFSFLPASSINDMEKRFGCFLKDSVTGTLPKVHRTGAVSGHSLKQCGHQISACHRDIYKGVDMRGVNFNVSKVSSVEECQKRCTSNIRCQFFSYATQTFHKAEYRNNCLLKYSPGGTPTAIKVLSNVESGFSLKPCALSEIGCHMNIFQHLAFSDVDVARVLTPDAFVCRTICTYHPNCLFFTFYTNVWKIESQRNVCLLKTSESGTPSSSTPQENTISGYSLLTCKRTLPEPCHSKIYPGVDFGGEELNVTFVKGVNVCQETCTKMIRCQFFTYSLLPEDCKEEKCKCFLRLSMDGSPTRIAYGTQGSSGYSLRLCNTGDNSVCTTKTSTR

| SMILES | EC50 [nM] |
| --- | --- |
| O=C(NCCc1cccc(Br)c1)c1cnn(Cc2cn3cc(C4CC4)ccc3n2)c1 [Example I-132, N-(3-bromophenethyl)-1-((6-cyclopropylimidazo[1,2-a]pyridin-2-yl)methyl)-1H-pyrazole-4-carboxamide] | 100 to 2000 |
| Nc1nnc(CNC(=O)c2cn(Cc3cn4cc(C5CC5)ccc4n3)nn2)s1 [Example I-20, N-((5-amino-1,3,4-thiadiazol-2-yl)methyl)-1-((6-cyclopropylimidazo[1,2-a]pyridin-2-yl)methyl)-1H-1,2,3-triazole-4-carboxamide] | 2000 to 7100 |
| O=C(NCc1ncc2c(F)cc(Cl)cn12)c1cnn(Cc2cn3cc(C4CC4)ccc3n2)c1 [Example I-137, N-((6-chloro-8-fluoroimidazo[1,5-a]pyridin-3-yl)methyl)-1-((6-cyclopropylimidazo[1,2-a]pyridin-2-yl)methyl)-1H-pyrazole-4-carboxamide] | 100 to 2000 |
| N#Cc1ccc(CNS(=O)(=O)c2cnn(Cc3cn4cc(C5CC5)ccc4n3)c2)cc1 [Example I-34, N-(4-cyanobenzyl)-1-((6-cyclopropylimidazo[1,2-a]pyridin-2-yl)methyl)-1H-pyrazole-4-sulfonamide] | > 7100 |
| O=C(NCc1cn(Cc2cn3cc(C4CC4)ccc3n2)nn1)c1ncc2c(F)c(Cl)ccn12 [Example I-56, 7-chloro-N-((1-((6-cyclopropylimidazo[1,2-a]pyridin-2-yl)methyl)-1H-1,2,3-triazol-4-yl)methyl)-8-fluoroimidazo[1,5-a]pyridine-3-carboxamide] | > 7100 |
| COc1ccc(-n2cnnn2)c(CNC(=O)c2cnc3n2C(c2cn4cc(C5CC5)ccc4n2)CC3)c1F (stereo not shown) [Example I-24, 5-(6-cyclopropylimidazo[1,2-a]pyridin-2-yl)-N-(2-fluoro-3-methoxy-6-(1H-tetrazol-1-yl)benzyl)-6,7-dihydro-5H-pyrrolo[1,2-a]imidazole-3-carboxamide] | 2000 to 7100 |
| O=C(NCc1cc2c(cn1)NCC2)c1cn(Cc2cn3cc(C4CC4)ccc3n2)nn1 [Example I-148, 1-((6-cyclopropylimidazo[1,2-a]pyridin-2-yl)methyl)-N-((2,3-dihydro-1H-pyrrolo[2,3-c]pyridin-5-yl)methyl)-1H-1,2,3-triazole-4-carboxamide] | 100 to 2000 |
| O=C(NCc1cc2c(cn1)NCCO2)c1cn(Cc2cn3cc(C4CC4)ccc3n2)nn1 [Example I-149, 1-((6-cyclopropylimidazo[1,2-a]pyridin-2-yl)methyl)-N-((3,4-dihydro-2H-pyrido[4,3-b][1,4]oxazin-7-yl)methyl)-1H-1,2,3-triazole-4-carboxamide] | 10 to 100 |
| COc1ccc(-n2cnnn2)c(CNC(=O)c2c(C)nn(Cc3cn4cc(C5CC5)ccc4n3)c2C)c1F [Example I-15, 1-((6-cyclopropylimidazo[1,2-a]pyridin-2-yl)methyl)-N-(2-fluoro-3-methoxy-6-(1H-tetrazol-1-yl)benzyl)-3,5-dimethyl-1H-pyrazole-4-carboxamide] | 100 to 2000 |
| CC(NS(=O)(=O)c1cnn(Cc2cn3cc(C4CC4)ccc3n2)c1)c1cccc(Cl)c1 (stereo not shown) [Example I-38, N-(1-(3-chlorophenyl)ethyl)-1-((6-cyclopropylimidazo[1,2-a]pyridin-2-yl)methyl)-1H-pyrazole-4-sulfonamide] | > 7100 |
| COC(=O)c1ccc(-c2ccc(OC)c(F)c2CNC(=O)c2cn(Cc3cn4cc(C5CC5)ccc4n3)nn2)cc1 [Example I-87, Methyl 2′-((1-((6-cyclopropylimidazo[1,2-a]pyridin-2-yl)methyl)-1H-1,2,3-triazole-4-carboxamido)methyl)-3′-fluoro-4′-methoxy-[1,1′-biphenyl]-4-carboxylate] | 10 to 100 |
| O=S(=O)(NCCc1cccc(Cl)c1)c1cnn(Cc2cn3cc(C4CC4)ccc3n2)c1 [Example I-44, N-(3-chlorophenethyl)-1-((6-cyclopropylimidazo[1,2-a]pyridin-2-yl)methyl)-1H-pyrazole-4-sulfonamide] | > 7100 |

Continued, values first:

| EC50 [nM] | SMILES |
| --- | --- |
| 1 to 10 | COc1ccc(-c2ccc(C(=O)O)cc2)c(CNC(=O)c2cn(Cc3cn4cc(C5CC5)ccc4n3)nn2)c1F [Example I-88, 2′-((1-((6-cyclopropylimidazo[1,2-a]pyridin-2-yl)methyl)-1H-1,2,3-triazole-4-carboxamido)methyl)-3′-fluoro-4′-methoxy-[1,1′-biphenyl]-4-carboxylic acid] |
| 1 to 10 | COc1ccc(F)c(CNC(=O)c2cn(Cc3cn4cc(C5CC5)cc(COCCN(C)C)c4n3)nn2)c1F [Example I-8, 1-((6-cyclopropyl-8-((2-(dimethylamino)ethoxy)methyl)imidazo[1,2-a]pyridin-2-yl)methyl)-N-(2,6-difluoro-3-methoxybenzyl)-1H-1,2,3-triazole-4-carboxamide] |
| 10 to 100 | Cc1cc2[nH]ccc2c(C)c1CNC(=O)c1cnn(Cc2cn3cc(C4CC4)ccc3n2)c1 [Example I-124, 1-((6-cyclopropylimidazo[1,2-a]pyridin-2-yl)methyl)-N-((4,6-dimethyl-1H-indol-5-yl)methyl)-1H-pyrazole-4-carboxamide] |
| 1 to 10 | COc1ccc(-n2cnnn2)c(CNC(=O)c2nc3n(n2)CCC3c2cn3cc(C4CC4)ccc3n2)c1F (stereo not shown) [Example I-4, 7-(6-cyclopropylimidazo[1,2-a]pyridin-2-yl)-N-(2-fluoro-3-methoxy-6-(1H-tetrazol-1-yl)benzyl)-6,7-dihydro-5H-pyrrolo[1,2-b][1,2,4]triazole-2-carboxamide] |
| ≤ 1 | O=C(O)CCc1cc(C2CC2)cn2cc(Cn3cc(C(=O)NCc4c(-n5cnnn5)ccc(Cl)c4F)nn3)nc12 [Example I-109, 3-(2-((4-((3-choro-2-fluoro-6-(1H-tetrazol-1-yl)benzyl)carbamoyl)-1H-1,2,3-triazol-1-yl)methyl)-6-cyclopropylimidazo[1,2-a]pyridin-8-yl)propanoic Acid] |
| ≤ 1 | COc1ccc(-n2cc(Cl)nn2)c(CNC(=O)c2cn(Cc3cn4cc(C5CC5)ccc4n3)nn2)c1F [Example I-1, N-(6-(4-chloro-1H-1,2,3-triazol-1-yl)-2-fluoro-3-methoxybenzyl)-1-((6-cyclopropylimidazo[1,2-a]pyridin-2-yl)methyl)-1H-1,2,3-triazole-4-carboxamide] |
| ≤ 1 | COc1ccc(-n2cnnn2)c(CNC(=O)c2cn3c(n2)CCC3c2cn3cc(C4CC4)ccc3n2)c1F (stereo not shown) [Example I-22, 5-(6-cyclopropylimidazo[1,2-a]pyridin-2-yl)-N-(2-fluoro-3-methoxy-6-(1H-tetrazol-1-yl)benzyl)-6,7-dihydro-5H-pyrrolo[1,2-a]imidazole-2-carboxamide] |
| 1 to 10 | COc1ccc(-c2ccncc2)c(CNC(=O)c2cn(Cc3cn4cc(C5CC5)ccc4n3)nn2)c1F [Example I-101, 1-((6-cyclopropylimidazo[1,2-a]pyridin-2-yl)methyl)-N-(2-fluoro-3-methoxy-6-(pyridin-4-yl)benzyl)-1H-1,2,3-triazole-4-carboxamide] |
| ≤ 1 | COc1ccc(-n2cnnn2)c(CNC(=O)c2cn(Cc3cn4cc(C5CC5)cc(CCC(=O)O)c4n3)nn2)c1F [Example I-92, 3-(6-cyclopropyl-2-((4-((2-fluoro-3-methoxy-6-(1H-tetrazol-1-yl)benzyl)carbamoyl)-1H-1,2,3-triazol-1-yl)methyl)imidazo[1,2-a]pyridin-8-yl)propanoic acid] |
| 10 to 100 | O=C(NCc1c(C(F)F)ccc(Cl)c1F)c1cn(Cc2cn3cc(C4CC4)ccc3n2)nn1 [Example I-79, N-(3-chloro-6-(difluoromethyl)-2-fluorobenzyl)-1-((6-cyclopropylimidazo[1,2-a]pyridin-2-yl)methyl)-1H-1,2,3-triazole-4-carboxamide] |
| ≤ 1 | COc1ccc(-n2cncn2)c(CNC(=O)c2cn(Cc3cn4cc(C5CC5)ccc4n3)nn2)c1F [Example I-61, 1-((6-cyclopropylimidazo[1,2-a]pyridin-2-yl)methyl)-N-(2-fluoro-3-methoxy-6-(1H-1,2,4-triazol-1-yl)benzyl)-1H-1,2,3-triazole-4-carboxamide] |
| 10 to 100 | COc1ccc(-n2cc(C)c(C)n2)c(CNC(=O)c2cn(Cc3cn4cc(C5CC5)ccc4n3)nn2)c1F [Example I-73, 1-((6-cyclopropylimidazo[1,2-a]pyridin-2-yl)methyl)-N-(6-(3,4-dimethyl-1H-pyrazol-1-yl)-2-fluoro-3-methoxybenzyl)-1H-1,2,3-triazole-4-carboxamide] |
| ≤ 1 | COc1ccc(C#N)c(CNC(=O)c2cn(Cc3cn4cc(C5CC5)cc(CCC(=O)O)c4n3)nn2)c1F [Example I-107, 3-(2-((4-((6-cyano-2-fluor-3-methoxybenzyl)carbamoyl)-1H-1,2,3-triazol-1-yl)methyl)-6-cyclopropylimidazo[1,2-a]pyridin-8-yl)propanoic Acid] |
| ≤ 1 | CCOC(=O)CCc1cc(C2CC2)cn2cc(Cn3cc(C(=O)NCc4c(-n5cnnn5)ccc(Cl)c4F)nn3)nc12 [Example I-113, ethyl 3-(2-((4-((3-chloro-2-fluoro-6-(1H-tetrazol-1-yl)benzyl)carbamoyl)-1H-1,2,3-triazol-1-yl)methyl)-6-cyclopropylimidazo[1,2-a]pyridin-8-yl)propanoate] |
| ≤ 1 | O=C(NCc1c(-n2cnnn2)ccc(Cl)c1F)c1cnn(Cc2cn3cc(C4CC4)ccc3n2)c1 [Example I-116, N-(3-chloro-2-fluoro-6-(1H-tetrazol-1-yl)benzyl)-1-((6-cyclopropylimidazo[1,2-a]pyridin-2-yl)methyl)-1H-pyrazole-4-carboxamide] |
| ≤ 1 | COc1ccc(-n2cnnn2)c(CNC(=O)c2cn(Cc3cn4cc(C5CC5)cc(C5(F)COC5)c4n3)nn2)c1F [Example I-91, 1-((6-cyclopropyl-8-(3-fluorooxetan-3-yl)imidazo[1,2-a]pyridin-2-yl)methyl)-N-(2-fluoro-3-methoxy-6-(1H-tetrazol-1-yl)benzyl)-1H-1,2,3-triazole-4-carboxamide] |
